Reference: US20220354817A1, “PHARMACEUTICAL COMPOSITION FOR PREVENTING OR TREATING SARCOPENIA CONTAINING NON-NATURAL AMINO ACID DERIVATIVE” (MYO-TEC-SCI, priority 2019, published 2022)
Where a name gives a salt, the structure may show the parent alone.

Tests used:
myostatin mRNA = assay: Myostatin mRNA expression by qRT-PCR in C2C12 cells, corrected with beta-actin; format: cell-based, mouse; conditions: for inhibition of myostatin mRNA expression: 0.1 mM and 1 mM in medium without L-leucine
From the text: […] After one day, the mRNA expression level of myostatin was identified using qRT-PCR, and the myostatin mRNA expression value was corrected using the expression value of beta-actin.

myostatin promoter = assay: Myostatin promoter activity, dual luciferase assay in C2C12 cells transfected with pGL4.15-MSTN; format: cell-based, mouse; conditions: for inhibition of myostatin promoter activity: 0.1 mM and 1 mM in medium without L-leucine; for inhibition of myostatin promoter activity / decrease in myostatin promoter activity compared to L-leucine: C2C12; for decrease in myostatin promoter activity compared to L-leucine: 1 mM in medium without L-leucine
Procedure: After seeding 1×10^5 cells of mouse skeletal muscle cells C2C12 (ATCC, US) in a 12-well culture plate, on the next day, pGL4.15 empty vector and pGL4.15-MSTN vector containing myostatin promoter were transfected using Lipofectamine 2000 for 4 hours. […] After one day, a dual luciferase assay kit (Promega Inc.) was used to measure the promoter activity of myostatin.

[1] = system: mouse skeletal muscle cells C2C12; assay: Degree of differentiation of C2C12 cells and number of differentiated intracellular nuclei; format: cell-based; conditions: 1 mM in differentiation medium, C2C12 grown without L-leucine; for cells in which differentiation occurs, compared to L-leucine: days 1, 6, 9
Procedure: (§1) To observe how L-leucine and D-Leu-OMe-HCl act on the differentiation of mouse skeletal muscle cells C2C12, a differentiation medium containing 1 mM L-leucine and D-Leu-OMe-HCl was given to mouse skeletal muscle cells C2C12 continuously grown in a medium without L-leucine, respectively. On days 1, 6, and 9, the degree of differentiation of mouse skeletal muscle cells and the number of nuclei present in the differentiated cells were measured (see FIG. 13).
as §1, with “D-Leu-BOC—H2O” for “D-Leu-OMe-HCl”, “15).” for “13).”

[2] = 1 mM in medium without L-leucine, C2C12
[3] = 0.1 mM in medium without L-leucine, C2C12, after one day

Row | Structure (SMILES) | inhibition of myostatin mRNA expression (myostatin mRNA; C2C12) | decrease of myostatin mRNA expression level relative to L-leucine (myostatin mRNA; [2]) | inhibition of myostatin promoter activity (myostatin promoter) | decrease in myostatin promoter activity compared to L-leucine (myostatin promoter) | cells containing 6 or more nuclei [1] | cells in which differentiation occurs, compared to L-leucine [1] | decrease in myostatin mRNA expression level compared to L-leucine (myostatin mRNA; 0.1 mM in medium without L-leucine, C2C12) | decrease in myostatin mRNA expression level compared to L-leucine (myostatin mRNA; [2]) | expression of myostatin mRNA (myostatin mRNA; [3]) | myostatin promoter activity (myostatin promoter; [3])
1 | CC(C)CC(NC(=O)OC(C)(C)C)C(=O)O [D-Leu-BOC—H2O] | inhibited | similarly to L-leucine | inhibited | about 1.89 times | observed statistically significantly | relatively large number of cells in which differentiation occurs |  |  |  | 
2 | COC(=O)C(N)CC(C)C [D-Leu-OMe-HCl] | inhibited |  | inhibited | about 1.96 times | observed statistically significantly | relatively large number of cells in which differentiation occurs | about 1.97 times | about 3.68 times |  | 
3 | CC(C)C[C@H](N)C(=O)OC(C)(C)C.Cl [L-Leu-OtBu-HCl] |  |  |  |  |  |  |  |  | decreased | significantly reduced
4 | CC(C)C[C@H](N)C(=O)O [L-leucine, reference compound] | inhibited |  | inhibited |  |  |  |  |  |  | 
